Where a SMILES comes first, the peptide text is derived from it. The star is where a group is joined. Cbz = O=C(OCc1ccccc1)*; CH2F = FC*
Columns and labels:
[1] = system: actin cleavage by caspase 3 in neurons; assay: Quantification of actin cleavage by caspase 3 using anti-fractin antibody (FIGS. 4 and 5); format: cell-based, mouse or rat; details: for actin cleavage (percentage of fractin-positive neurons): 24 h, triplicate
Description: (§1) For the immunodetection of the fractin or of the p20 subunit of caspase 3 (Pharmingen), the cells are fixed with 4% paraformaldehyde (30 minutes, room temperature), washed three times with PBS and saturated for 1 hour at 37° C. with 10% fetal calf serum (FCS) in PBS containing 0.2% of Triton X 100.
(§2) Purified primary antibodies directed against fractin or p20 are diluted (in PBS-FCS) 2000-fold and 500-fold, respectively, incubated overnight at 4° C. washed three times and incubated with biotinylated anti-rabbit antibodies.
(§3) The detection is carried out using the alkaline phosphatase amplification kit (Vector, France).
(§4) For each condition, 600 to 800 cells are counted three times.
(§5) The statistical analysis is carried out with ANOVA and the Scheffé test.
FIGS. 4 and 5 illustrate the quantification of the actin cleavage by caspase 3 using the anti-fractin antibody, by immunocytochemistry after fixing the cells with paraformaldehyde (F. Yang et al., Am. J. Pathol., 1998, 152, 2, 379–389). The anti-fractin antibody specifically recognizes actin cleaved by caspase 3. The percentage of fractin-positive neurons was determined after 24 h of internalization of the peptides, by counting approximately 1000 cells per well in triplicate.

[2] = system: p20 subunit of caspase 3 in mouse cortical embryonic neurons; assay: Immunoreactivity for the p20 subunit of caspase 3 (FIGS. 6 and 7); format: cell-based; details: inhibitor with peptide Jcasp
Description: as §1, §2, §3, §4, §5
In order to verify that caspase 3 is effectively involved in the apoptosis caused by peptide Jcasp, use is made of the fact that this enzyme (caspase 3) is synthesized in the form of a propetide (37 kDa) which, after stimulation, generates an active subunit of 17–22 kDa (p20).
Immunoreactivity for p20 is examined in mouse cortical embryonic neurons cultured for 24 hours in the presence of several peptides. FIG. 6 illustrates the immunoreactivity for the p20 protein and FIG. 7 quantifies the induction of the p20.

[3] = system: E15 rat cortical neurones; assay: Cell death by TUNEL in E15 rat cortical neurones (FIG. 3); format: cell-based
Description: (§6) Cortical and corticostriatal neurons are prepared, as described previously (Lafont et al., Development, 1992, 114, 17–29, ), from E14, mouse embryos or from E15, rat embryos.
(§7) Briefly, the dissociated cells are plated out onto polyornithine-coated plastic plates (ELISA-type plates) at a density of 5,000, cells per well, and incubated in a suitable medium supplemented with hormones, proteins and salts.
(§8) All the peptides are added to the cells two hours after the latter have been plated out. The internalization is verified by confocal microscopy after immunolabeling (Pmyc) or detection of biotin (Jcasp and its variants).
(§9) The internalization and the intracellular stability of Jcasp, Pmyc and J(Y→D)Casp are identical. The irreversible caspase inhibitors zVAD-fmk (100 μM) and zDEVD-fmk (200 μM) (Calbiochem, France) are added 1 hour before addition of the peptide.
(§10) The apoptotic cells are detected by TUNEL labeling (fluorescein or alkaline phosphatase kits) as described by the supplier (Roche Diagnostics, France).
as §4, §5
Peptide Jcasp induces neuronal apoptosis. Two hours after plating out onto plates, peptide Jcasp is added to the E15 rat cortical neurones and cell death is evaluated by the TUNEL effect, 24 hours later.

[4] = system: neurons (primary culture); assay: Quantification of DNA cleavage by TUNEL 24 h after internalization of the peptides (FIG. 2); format: cell-based, mouse or rat; details: for DNA cleavage (percentage of TUNEL-positive cells): triplicate, p<0.0001
Description: as §6, §7, §8, §9, §10, §4, §5
Peptide G was internalized at 2 concentrations (1X and 2X) and peptide Gcasp (or Jcasp) was internalized at the 1X concentration, in the presence or absence of the caspase inhibitor zVAD.
Each condition was tested in triplicate. The percentage of positive cells was evaluated after 24 h by counting approximately 1000 cells per well.

[5] = system: cortical and corticostriatal neurons; assay: Internalization of peptides into primary cultures of neurons: toxicity, neurite growth, neuronal death; format: cell-based, mouse or rat
Description: as §6, §7
The internalization conditions are the same as those described in International Application WO 97/12912.
as §8

COC(=O)CC[C@H](NC(=O)[C@H](CC(=O)OC)NC(=O)OCc1ccccc1)C(=O)N[C@H](C(=O)N[C@@H](CC(=O)OC)C(=O)CF)C(C)C [zDEVD-fmk]
effect on actin cleavage induced by peptide Jcasp (FIG. 5) ([1]; inhibitor with peptide Jcasp): inhibits the actin cleavage | effect on activation of p20 by peptide Jcasp [2]: significantly decreases the activation of p20 | effect on basal cell death (TUNEL) ([3]; inhibitor at 200 μM, added 1 hour before peptide): weak effect | inhibition of DNA fragmentation induced by peptide Jcasp ([3]; inhibitor at 200 μM, Jcasp at 1.2 μM and 2.4 μM): inhibits the DNA fragmentation

COC(=O)C[C@H](NC(=O)[C@H](C)NC(=O)[C@@H](NC(=O)OCc1ccccc1)C(C)C)C(=O)CF [zVAD-fmk] (Cbz-Val-Ala-Asp(OMe)-CH2F)
effect of caspase inhibitor on peptide-induced increase in DNA cleavage (TUNEL) ([4]; with peptide G or Jcasp): inhibits this increase in cleavage | effect on endogenous cleavage of actin by caspases of neurones ([1]; inhibitor alone): inhibits all endogenous cleavage | effect on the peptide-induced increase in actin cleavage ([1]; with G1X, G2X and Gcasp1X, p<0.0001, inhibition not complete): significantly inhibits the increase

peptide H: SEQ ID NO: 5 + domain H (NGYENPTYK, SEQ ID NO: 7), APP positions 680–688 (KQIKIWFQNRRMKWKKNGYENPTYK; listed as Homo sapiens)
effect on neurite growth after internalization ([5]; internalization into neurons): no effect

peptide G: KQYTSIHHG, APP positions 651–659 (SEQ ID NO: 2, Y0 null), tested with Y1 = penetratin SEQ ID NO: 5 (KQIKIWFQNRRMKWKKKQYTSIHHG; listed as Homo sapiens)
effect on neurite growth after internalization ([5]; concentrations lower than one μM): reproduces the effects of the intact C-terminal domain | pro-apoptotic nature after internalization ([5]; internalized into neurons): pro-apoptotic | DNA cleavage (percentage of TUNEL-positive cells) ([4]; concentration 1X): significant increase | DNA cleavage (percentage of TUNEL-positive cells) ([4]; concentration 2X): significant increase | actin cleavage (percentage of fractin-positive neurons) ([1]; 1X): significant increase | actin cleavage (percentage of fractin-positive neurons) ([1]; 2X, p<0.0001): significant increase

peptide E: SEQ ID NO: 5 + domain E (VDAAVTPEE, SEQ ID NO: 6), APP positions 663–671 (KQIKIWFQNRRMKWKKVDAAVTPEE; listed as Homo sapiens)
effect on neurite growth after internalization ([5]; internalization into neurons): no effect

Pmyc: SEQ ID NO: 5 + peptide corresponding to the MYC sequence [EQKLISEED]; no relation to APP (KQIKIWFQNRRMKWKKEQKLISEED; listed as Homo sapiens)
DNA fragmentation / number of TUNEL-positive cells ([3]; 24 hours, concentration not given): no effect

Reference: patent US7115380B2, “Applications of peptides derived from the cytoplasmic domain of amyloid precursor protein (APP)” (Centre National de la Recherche Scientifique, priority 1999, dated 2006)
